Results on 4 compounds are retold here after DBAASP.

Among the test systems are Acinetobacter sp.; Escherichia coli; Fusarium oxysporum; Fusarium oxysporum M; Fusarium haematococcum; Trichoderma viride; Botrytis cinerea; Salmonella typhimurium; Escherichia coli D31; Escherichia coli D22; Alternaria brassicicola; Alternaria dauci; Aspergillus fumigatus; Fusarium culmorum; Escherichia coli 1106; Bacillus subtilis; Stemphylium sp.; Fusarium oxysporum L; Pseudomonas syringae; Staphylococcus aureus; Aerococcus viridans; Micrococcus luteus; Neurospora crassa; Candida albicans 38U; Candida parapsilosis; Trichophyton rubrum; Candida albicans 01U.

What all share (experiment): ≥ marks a high value that may be exact or a test limit, other limits are often not marked, values filed in µg/mL are converted to µM
The subject of assay [1] is Staphylococcus aureus ATCC 25923.
The subject of assay [2] is Staphylococcus aureus MRSA-16.
Assay [3] has as its system Escherichia coli ATCC 25922.
Assay [4] has as its system Staphylococcus aureus MRSA-G.
The subject of assay [5] is Bacillus subtilis ATCC 6633.
The subject of assay [6] is Escherichia coli ATCC 11775.
Assay [7] deals with Staphylococcus aureus ATCC 9144.
In assay [8] the test system is Pseudomonas aeruginosa ATCC 25668.
Assay [9] relates to Pseudomonas syringae pv. phaseolicola.
Assay [10] has as its system Xanthomonas vesicatoria B229RI.
For assay [11], the system named is Xanthomonas vesicatoria 687.3.
Assay [12] concerns Pseudomonas syringae pv. Valerianella.
The test system of assay [13] is Xanthomonas campestris pv. campestris.
Assay [14] relates to Pseudomonas syringae pv. syringae.
The test system of assay [15] is Pseudomonas syringae pv. Maculicola.
Assay [16] relates to Clavibacter michiganensis subsp. michiganensis.
Assay [17] deals with Pseudomonas syringae pv. Pisi.
In assay [18] the test system is Trichophyton mentagrophytes.
For assay [19], the system named is Cryptococcus neoformans L26.
In assay [20] the test system is Cryptococcus neoformans L30.

SMILES strings stand for the structures. Converted amounts (≈) assume the structure as drawn. “And” between values parts separate entries of the source, which are not always exact repeats. Equal values may be shown once.

Turning to `CC[C@H](C)[C@H](NC(=O)[C@H](C)NC(=O)[C@H](CCCCN)NC(=O)[C@@H](NC(=O)CNC(=O)CNC(=O)[C@H](Cc1c[nH]c2ccccc12)NC(=O)[C@H](Cc1ccccc1)NC(=O)[C@H](CCCCN)NC(=O)[C@H](CCCCN)NC(=O)[C@H](Cc1ccccc1)NC(=O)[C@@H](N)Cc1ccccc1)C(C)C)C(=O)N[C@@H](Cc1ccccc1)C(=O)N[C@@H](CCCCN)C(=O)NCC(=O)N[C@@H](C)C(=O)N[C@@H](CCCN=C(N)N)C(=O)N[C@@H](CCCCN)C(=O)NCC(=O)N[C@@H](Cc1c[nH]c2ccccc12)C(=O)N[C@@H](CCCCN)C(=O)O` [FFKKFWGGVKAIFKGARKGWK], the MIC was 4 µM and > 2 µM in [1]; 4 µM (≈ 9.95 µg/mL) in assay [2]; 2 µM and > 1 µM in assay [3]; 4 µM (≈ 9.95 µg/mL) in assay [4].
On to `CC[C@H](C)[C@H](N)C(=O)N[C@@H](CCCCN)C(=O)N[C@@H](Cc1c[nH]c2ccccc12)C(=O)N[C@@H](C)C(=O)NCC(=O)N[C@@H](CCCCN)C(=O)N[C@@H](CC(C)C)C(=O)N[C@@H](Cc1ccccc1)C(=O)N[C@@H](CCCCN)C(=O)N[C@@H](CC(C)C)C(=O)N[C@@H](Cc1ccccc1)C(=O)N[C@@H](CCCCN)C(N)=O` [IKWAGKLFKLFK], for which the MIC in assay [5] was 5.41 µM (≈ 7.99 µg/mL); with Acinetobacter sp., 21.6 µM (≈ 32 µg/mL); in assay [6], 0.676 µM (≈ 0.999 µg/mL); in the assay with Escherichia coli, 2.7 µM (≈ 4 µg/mL); in [7], 2.7 µM (≈ 4 µg/mL); in assay [8], 5.41 µM (≈ 7.99 µg/mL).
In the case of `CC[C@H](C)[C@@H]1NC(=O)[C@H](CCCCN)NC(=O)[C@H]([C@@H](C)CC)NC(=O)[C@H](CCC(N)=O)NC(=O)[C@H](CCCN=C(N)N)NC(=O)[C@@H](NC(=O)[C@@H](NC(=O)[C@H](CO)NC(=O)[C@@H](N)CCCN=C(N)N)C(C)C)CSSC[C@@H](C(=O)N[C@H](C(=O)N[C@@H](CC(N)=O)C(=O)N[C@@H](CCCN=C(N)N)C(=O)N2CCC[C@H]2C(=O)N[C@@H](Cc2ccc(O)cc2)C(=O)O)[C@@H](C)O)NC(=O)[C@H](CCCCN)NC(=O)[C@H](Cc2ccc(O)cc2)NC(=O)[C@H](Cc2ccc(O)cc2)NC(=O)[C@@H]2CSSC[C@H](NC1=O)C(=O)N[C@@H](CCCN=C(N)N)C(=O)N[C@@H](CCCN=C(N)N)C(=O)N[C@@H](CCCN=C(N)N)C(=O)NCC(=O)NCC(=O)N2` [RSVCRQIKICRRRGGCYYKCTNRPY], the MIC was 8.49 µM (≈ 26.1 µg/mL) in the assay with Fusarium oxysporum; 2.83 µM (≈ 8.7 µg/mL) in the assay on Fusarium oxysporum M; 8.49 µM (≈ 26.1 µg/mL) against Fusarium haematococcum; 2.12 µM (≈ 6.53 µg/mL) in assay [9]; 8.49 µM (≈ 26.1 µg/mL) in the assay with Trichoderma viride; 2.12 µM (≈ 6.53 µg/mL) in assay [10]. Also, the MIC came out at 8.49 µM (≈ 26.1 µg/mL) with Botrytis cinerea; 2.12 µM (≈ 6.53 µg/mL) in [11]; 4.24 µM (≈ 13.1 µg/mL) against Salmonella typhimurium; 4.24 µM (≈ 13.1 µg/mL) in the assay with Escherichia coli D31; 30 µM (≈ 92.3 µg/mL) in the assay with Escherichia coli D22; 4.24 µM (≈ 13.1 µg/mL) with Alternaria brassicicola. The MIC in [12] was 18.2 µM (≈ 55.9 µg/mL); in the assay on Alternaria dauci it was 11.3 µM (≈ 34.8 µg/mL); with Aspergillus fumigatus it was at least 35.4 µM; with Fusarium culmorum, 4.24 µM (≈ 13.1 µg/mL); in the assay with Escherichia coli 1106, 9.49 µM (≈ 29.2 µg/mL); in the assay with Bacillus subtilis it was 2.12 µM (≈ 6.53 µg/mL). Also, the MIC in assay [13] worked out at 4.24 µM (≈ 13.1 µg/mL); in the assay with Stemphylium sp. it was 5.66 µM (≈ 17.4 µg/mL); in assay [14], 18.2 µM (≈ 55.9 µg/mL); against Fusarium oxysporum L, 2.83 µM (≈ 8.7 µg/mL); in the assay with Pseudomonas syringae, 2.12 µM (≈ 6.53 µg/mL); against Staphylococcus aureus, 21.2 µM (≈ 65.3 µg/mL). Moreover, the MIC amounted to 0.424 µM (≈ 1.31 µg/mL) with Aerococcus viridans; 0.949 µM (≈ 2.92 µg/mL) against Micrococcus luteus; 8.49 µM (≈ 26.1 µg/mL) in the assay on Neurospora crassa; 4.24 µM (≈ 13.1 µg/mL) in [15]; 9.49 µM (≈ 29.2 µg/mL) in [16]; 9.49 µM (≈ 29.2 µg/mL) in assay [17].
Regarding `CC[C@H](C)[C@H](NC(=O)[C@H](CC(C)C)NC(=O)[C@H](CCC(=O)O)NC(=O)[C@H](CO)NC(=O)[C@H](CCCN=C(N)N)NC(=O)[C@@H](N)CO)C(=O)N[C@H](C(=O)N[C@@H](Cc1cnc[nH]1)C(=O)N[C@@H](CCC(N)=O)C(=O)N[C@@H](CCCN=C(N)N)C(=O)N[C@@H](CCSC)C(=O)N[C@@H](CCCCN)C(N)=O)C(C)C` [SRSELIVHQRMK], the MIC was 21.6 µM (≈ 32 µg/mL) in the assay on Candida albicans 38U; at least 173 µM in assay [18]; at least 173 µM in [19]; at least 173 µM with Candida parapsilosis; 21.6 µM (≈ 32 µg/mL) against Trichophyton rubrum; 21.6 µM (≈ 32 µg/mL) in the assay on Candida albicans 01U. In [20], the MIC was at least 173 µM.

Broadly, the MIC is the lowest concentration that inhibits growth of the organism.
